Molecular target: cAMP and cAMP-inhibited cGMP 3',5'-cyclic phosphodiesterase 10A (Homo sapiens, UniProt Q9Y233)
Assay: PDE10A assay
How it was run: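 Scintillation proximity readout of [3H]cGMP hydrolysis (50 nM final substrate, 15 min) by 2 ng/well human PDE10A after 15 min compound preincubation at RT, pH 7.5 with MgCl2. Four-parameter logistic fit gave IC50, reported as pIC50.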

Compound	IC50 [nM]
Cc1cc(C(=O)Nc2cc3[nH]c(-c4ccccc4)nc3cc2C(F)(F)F)n(C)n1 [Roche-Dataset for PDE10A, Compound 731]	10000
O=C(Nc1ccc(N2CCCC2=O)cc1)c1nc(C2CC2)ccc1Nc1cncnc1 [Roche-Dataset for PDE10A, Compound 733]	18
O=C(Nc1cccc(S(=O)(=O)CCO)c1)c1nc(C2CC2)cnc1Nc1cncnc1 [Roche-Dataset for PDE10A, Compound 734]	8.52
CN1CCN(c2cccc(NC(=O)c3nc(C4CC4)cnc3Nc3cncnc3)c2)CC1 [Roche-Dataset for PDE10A, Compound 741]	71
CCn1nc(NC(=O)c2c(C(=O)N3CCC3)cnn2C)cc1-c1cccc(Cl)c1 [Roche-Dataset for PDE10A, Compound 744]	1630
COc1nc2cc(NC(=O)c3c(C(=O)N4CCC4)cnn3C)ccn2n1 [Roche-Dataset for PDE10A, Compound 745]	6550
O=C(NCCS(=O)(=O)c1ccccc1)c1nc(C2CC2)cnc1Nc1cncnc1 [Roche-Dataset for PDE10A, Compound 746]	3450
CN(C)C(=O)c1cc(NC(=O)c2nc(C3CC3)ccc2Nc2cncnc2)[nH]n1 [Roche-Dataset for PDE10A, Compound 748]	1150
O=C(N[C@@H]1C[C@H]1c1ccccc1)c1nc(C2CC2)cnc1Nc1cncnc1 [Roche-Dataset for PDE10A, Compound 749]	711
O=C(Nc1cc(-c2ccccc2)no1)c1ccc2cc(-c3ccccc3)nn2c1 [Roche-Dataset for PDE10A, Compound 752]	4500
Cc1c(Cl)cc(Cl)c2nc(CCc3cn4c(n3)SCC4)nn12 [Roche-Dataset for PDE10A, Compound 760]	27
CCOC(=O)c1cnn(C)c1C(=O)Nc1ccn2nc(C(C)C)nc2c1 [Roche-Dataset for PDE10A, Compound 761]	1450
Cc1c(Cl)cc(C(F)(F)F)c2nc(/C=C/c3nc(Br)nn3C)nn12 [Roche-Dataset for PDE10A, Compound 764]	115
CCOc1cc(NC(=O)c2nc(C3CC3)cnc2Nc2cncnc2)ccn1 [Roche-Dataset for PDE10A, Compound 765]	53
CN(C)c1nc2cc(NC(=O)c3c(C(=O)O)cnn3C)ccn2n1 [Roche-Dataset for PDE10A, Compound 768]	976
Cc1nc2ccc(Cl)cc2nc1OCc1nc(-c2ccccc2)cn1C [Roche-Dataset for PDE10A, Compound 769]	6.38
Cc1ncn(C)c1C(=O)Nc1cc(-c2ccccn2)nn1C [Roche-Dataset for PDE10A, Compound 772]	10000
Cn1nc(-c2ccccn2)cc1NC(=O)c1c(I)cc[nH]c1=O [Roche-Dataset for PDE10A, Compound 774]	2800
CN(C)C(=O)Cc1csc(NC(=O)c2nc(C3CC3)cnc2Nc2cncnc2)n1 [Roche-Dataset for PDE10A, Compound 775]	13
COc1ncc(C2CC2)nc1C(=O)Nc1cc(-c2ccccn2)nn1C [Roche-Dataset for PDE10A, Compound 776]	1680
O=C(Nc1cccc(N2CCS(=O)(=O)CC2)c1)c1nc(C2CC2)cnc1Nc1cncnc1 [Roche-Dataset for PDE10A, Compound 777]	22
O=C(Nc1ccn2nc(-c3ccccc3)nc2c1)c1ccc(Cl)cn1 [Roche-Dataset for PDE10A, Compound 778]	10000

Compound	IC50 [nM]
O=C(NCCN1CCCC1=O)c1nc(C2CC2)cnc1Nc1cncnc1 [Roche-Dataset for PDE10A, Compound 779]	2070
Clc1ccc2nc(CCc3nc4ccc(Cl)cn4n3)nn2c1 [Roche-Dataset for PDE10A, Compound 780]	77
Cc1ncc(C)n2nc(/C=C/c3nc(N4CCC[C@@H]4C(F)(F)F)nn3C)nc12 [Roche-Dataset for PDE10A, Compound 782]	3.4
O=C(NCc1cc(F)cc(F)c1)c1nc(C2CC2)cnc1Nc1cncnc1 [Roche-Dataset for PDE10A, Compound 783]	1060
Cc1c(Cl)cc(Cl)c2nc(CCc3cn4cccnc4n3)nn12 [Roche-Dataset for PDE10A, Compound 785]	360
CN(C)C(=O)Cn1cc(NC(=O)c2nc(C3CC3)cnc2Nc2cncnc2)cn1 [Roche-Dataset for PDE10A, Compound 787]	671
O=C1NCc2ccc(NC(=O)c3nc(C4CC4)ccc3Nc3cncnc3)cc21 [Roche-Dataset for PDE10A, Compound 788]	20
COCc1ccc(Nc2cncnc2)c(C(=O)Nc2cccc(-c3ccn(C)n3)c2)n1 [Roche-Dataset for PDE10A, Compound 790]	5.32
Cc1c(Cl)cc(Cl)c2nc(CCc3nc4ncccn4n3)nn12 [Roche-Dataset for PDE10A, Compound 791]	916
O=C(Nc1cccc(N2CCCC2)c1)c1nc(C2CC2)cnc1Nc1cncnc1 [Roche-Dataset for PDE10A, Compound 793]	132
O=C(NCCCN1CCCC1=O)c1nc(C2CC2)cnc1Nc1cncnc1 [Roche-Dataset for PDE10A, Compound 795]	1110
O=C(NCc1ccc(F)c(F)c1)c1nc(C2CC2)cnc1Nc1cncnc1 [Roche-Dataset for PDE10A, Compound 799]	376
CS(=O)(=O)c1ccc(CNC(=O)c2nc(C3CC3)cnc2Nc2cncnc2)cc1 [Roche-Dataset for PDE10A, Compound 800]	554
Cn1ncc(C(=O)N2CCC2)c1C(=O)Nc1cn(-c2cccc(C(F)(F)F)n2)cn1 [Roche-Dataset for PDE10A, Compound 802]	3190
O=C(NCC1(c2ccccc2)CCCCC1)c1nc(C2CC2)cnc1Nc1cncnc1 [Roche-Dataset for PDE10A, Compound 804]	728
C/C(=C\c1nc2c(C)ncc(C)n2n1)c1nc(N2CCCC2)nn1C [Roche-Dataset for PDE10A, Compound 805]	62
CNC(=O)Cc1ccccc1NC(=O)c1nc(C2CC2)ccc1Nc1cncnc1 [Roche-Dataset for PDE10A, Compound 809]	53
Cc1nc2ccccc2nc1OCc1nc(-c2ccc(Cl)cc2)cn1C [Roche-Dataset for PDE10A, Compound 810]	179
O=C(Nc1nc2cccnc2s1)c1nc(C2CC2)ccc1Nc1cncnc1 [Roche-Dataset for PDE10A, Compound 811]	20
O=C(Nc1cccc(N2CCOCC2)c1)c1nc(C2CC2)cnc1Nc1cncnc1 [Roche-Dataset for PDE10A, Compound 812]	13
Cc1ncc(C(=O)Nc2ccn3nc(-c4ccccc4)nc3c2)cn1 [Roche-Dataset for PDE10A, Compound 813]	10000
CCCCc1cc(NC(=O)c2c(C(=O)N3CCC3)cnn2C)n(C2CCCC2)n1 [Roche-Dataset for PDE10A, Compound 814]	619

Compound	IC50 [nM]
O=C(Nc1ccnc(N2CCOCC2)c1)c1nc(C2CC2)cnc1Nc1cncnc1 [Roche-Dataset for PDE10A, Compound 815]	8.56
CC(C)Oc1cncc(NC(=O)c2nc(C3CC3)cnc2Nc2cncnc2)c1 [Roche-Dataset for PDE10A, Compound 816]	63
NS(=O)(=O)c1ccc(CNC(=O)c2nc(C3CC3)cnc2Nc2cncnc2)cc1 [Roche-Dataset for PDE10A, Compound 817]	389
O=C(Nc1snnc1-c1ccccc1)c1nc(C2CC2)ccc1Nc1cncnc1 [Roche-Dataset for PDE10A, Compound 818]	7.58
CCn1ccc(NC(=O)c2nc(C3CC3)ccc2Nc2cncnc2)n1 [Roche-Dataset for PDE10A, Compound 819]	72
COc1ccc(-c2nc3cc(NC(=O)c4c(C(=O)N5CCC5)cnn4C)ccn3n2)cc1 [Roche-Dataset for PDE10A, Compound 820]	7.9
CC(=O)N(C)c1cccc(NC(=O)c2nc(C3CC3)cnc2Nc2cncnc2)c1 [Roche-Dataset for PDE10A, Compound 821]	135
O=C(NC1CCN(Cc2ccccc2)CC1)c1nc(C2CC2)cnc1Nc1cncnc1 [Roche-Dataset for PDE10A, Compound 823]	5050
CCOC(=O)c1cnn(C)c1C(=O)N(C)c1ccn2nc(-c3ccccc3)nc2c1 [Roche-Dataset for PDE10A, Compound 825]	10000
CC(=O)N1CCc2ccc(NC(=O)c3nc(C4CC4)cnc3Nc3cncnc3)cc21 [Roche-Dataset for PDE10A, Compound 827]	5.85
CN(C)CCn1ccc(NC(=O)c2nc(C3CC3)cnc2Nc2cncnc2)n1 [Roche-Dataset for PDE10A, Compound 828]	29
O=C(Nc1cccc(C(=O)N2CCCC2)n1)c1nc(C2CC2)cnc1Nc1cncnc1 [Roche-Dataset for PDE10A, Compound 830]	10
O=C(Nc1cccc(N2CCCC2=O)c1)c1nc(C2CC2)ccc1Nc1cncnc1 [Roche-Dataset for PDE10A, Compound 831]	24
O=C(Nc1nc(CN2CCCCC2)cs1)c1nc(C2CC2)cnc1Nc1cncnc1 [Roche-Dataset for PDE10A, Compound 832]	32
Cn1ncc(C(=O)N2CCC2)c1C(=O)Nc1cn(-c2ccccn2)cn1 [Roche-Dataset for PDE10A, Compound 833]	46
Cc1ncc(C)n2nc(CCc3nc(-n4cccn4)nn3C)nc12 [Roche-Dataset for PDE10A, Compound 836]	169
O=C(NCc1cccc(F)c1)c1nc(C2CC2)cnc1Nc1cncnc1 [Roche-Dataset for PDE10A, Compound 837]	499
O=C(NCc1cn2ccsc2n1)c1nc(C2CC2)cnc1Nc1cncnc1 [Roche-Dataset for PDE10A, Compound 838]	38
O=C(NCCNS(=O)(=O)c1ccccc1)c1nc(C2CC2)cnc1Nc1cncnc1 [Roche-Dataset for PDE10A, Compound 839]	403
CSc1nc2cc(NC(=O)c3c(C(=O)N4CCC4)cnn3C)ccc2s1 [Roche-Dataset for PDE10A, Compound 840]	331

— BindingDB's records for doi:10.1007/s10822-022-00478-x (Roche Innovation Center Basel, F. Hoffmann-La Roche Ltd., 2022)
